The target of data set [1] is human aldose reductase (hALR2) (Homo sapiens, UniProt P15121). The data set is described as follows: inhibition of human aldose reductase (hALR2) activity, methods similar to Butera et al. The format is biochemical. The following applies: concentration to inhibit activity by 50%, read-out: hAR-#1 (aldose). The method, then:
Representative compounds of the invention are tested for their potency, selectivity and efficacy as inhibitors of human aldose reductase. […] Using this assay, the concentrations required to inhibit human aldose reductase (hALR2) activity by 50% (IC50) are determined.

Where a name gives a salt, the structure may show the parent alone.

The compound `O=C(O)Cc1ccc(Cc2nc3c(F)c(F)cc(F)c3s2)s1` [Example 19, [5-(4,5,7-trifluoro-benzothiazol-2-ylmethyl)-thiophen-2-yl]-acetic acid] yielded a melting point of 132 to 133 °C. The IC50 in data set [1] turned out to be 27 nM. Take `O=C(O)Cc1cc(Cc2nc3c(F)c(F)cc(F)c3s2)cs1` [Example 21, [4-(4,5,7-Trifluoro-benzothiazol-2-ylmethyl)-thiophen-2-yl]-acetic acid]: the melting point lay in the range of 144 to 146 °C. The IC50 in data set [1] came out at 9 nM. The corresponding values for `CCCc1nc(CCC)c(Cc2nc3c(F)c(F)cc(F)c3s2)cc1CC(=O)O.Cl` [Example 7, [2,6-Dipropyl-5-(4,5,7-trifluoro-benzothiazol-2-ylmethyl)-pyridin-3-yl]acetic acid hydrochloride] are 98 to 100 °C and 7 nM.

Take `O=C(O)Cc1ccsc1Cc1nc2c(F)c(F)cc(F)c2s1` [Example 23, [2-(4,5,7-trifluoro-benzothiazol-2-ylmethyl)-thiophen-3-yl]-acetic acid]: the melting point was in the range of 142 to 144 °C. For the same compound, the IC50 in data set [1] amounted to 24 nM. The matching figures for `Cl.O=C(O)Cc1cc(Cc2nc3c(F)c(F)cc(F)c3s2)c(-c2ccccc2)nc1-c1ccccc1` [Example 6, [2,6-Diphenyl-5-(4,5,7-trifluoro-benzothiazol-2-ylmethyl)-pyridin-3-yl]acetic acid hydrochloride]: 84 to 86 °C and 11 nM. The corresponding values for `CCc1nc(CC)c(Cc2nc3c(F)c(F)cc(F)c3s2)cc1CC(=O)O.Cl` [Example 5, [2,6-Diethyl-5-(4,5,7-trifluoro-benzothiazol-2-ylmethyl)-pyridin-3-yl]acetic acid hydrochloride] are 143 to 145 °C and 7 nM. The corresponding values for `Cc1sc(C)c(Cc2nc3c(F)c(F)cc(F)c3s2)c1CC(=O)O` [Example 18, [2,5-Dimethyl-4-(4,5,7-trifluoro-benzothiazol-2-ylmethyl)-thiophen-3-yl]-acetic acid] are 170 to 171 °C and 36 nM. `Cc1nc(C)c(Cc2nc3c(F)c(F)cc(F)c3s2)cc1CC(=O)O.Cl` [Example 4, 2,6-Dimethyl-5-(4,5,7-trifluoro-benzothiazole-2-ylmethyl)-pyridin-3-yl-acetic acid hydrochloride]: the melting point is 211 °C (dec.). In addition, the IC50 in data set [1] was determined as 4 nM.

With `O=C(O)Cc1cc(Cc2nc3c(F)c(F)cc(F)c3s2)cnc1-c1ccccc1` (as salt: hydrochloride) [Example 13, 2-phenyl-5-(4,5,7-trifluoro-benzothiazol-2-ylmethyl)-pyridin-3-yl-acetic acid hydrochloride], the melting point is 110 °C (dec.). The same measure, in the same setting: the value for `O=C(O)Cc1cc(Cc2nc3cc(C(F)(F)F)ccc3s2)cs1` (as salt: hydrochloride) was 131 to 132 °C.

The values are drawn from US7361671B2, “Substituted heteroarylalkanoic acids” (The Institute for Pharmaceutical Discovery, Inc., priority 2001, dated 2008).
